In US6225478A, “Iridoid derivatives and neovascularization inhibitors containing the same as active ingredient” (Tsumura & Co., priority 1999, dated 2001):
≈ marks a conversion by molar mass, not a printed value. Like-named read-outs stand apart in the source and are kept apart here.

Assays:
Assay type in all cases: cell-based
[1] = test system: human umbilical-vein endothelial cells (HUVEC); experiment: Cell Proliferation Assay (CPA) Test, HUVEC, MTT; conditions: M199 (2+) medium; for IC50: Homo sapiens, read-out: CPA (IC50 μg/ml)
Procedure, shortened: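 HUVEC (7th subculture) seeded at 5×10^4 cells/ml in M-199 with 20% FCS, 10 ng/ml b-FGF and 10 ng/ml EGF, grown 24 h at 37 °C, 5% CO2. Compounds added from 1 mg/ml or 0.1 mg/ml samples in 5% DMSO-PBS(−), renewed with medium after 24 h, then cultured 48 h more. Read-out by MTT with 4 h incubation and SDS/HCl stop.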

[2] = test system: human umbilical-vein endothelial cells (HUVEC); experiment: Cell Migration Assay (CMA) Test, HUVEC (% relative to control); conditions: 24 hours, 60% or less = remarkable inhibition; for activity at 1 µg/mL / activity at 10 µg/mL: Homo sapiens, HUVEC, read-out: CMA (% relative to control)
Procedure, shortened: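 Confluent 7th-subculture HUVEC monolayers scraped with razor blade, then given M199 (2+) plus 40 or 4 μl of 1 mg/ml sample (in 5% DMSO-PBS) per 4.0 ml medium for 24 h at 37 °C. Methanol-fixed, Giemsa-stained; newly migrated cells counted microscopically in 1 mm×1 mm blocks, expressed versus M199 (2+) control.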

[3] = test system: human umbilical-vein endothelial cells (HUVEC); experiment: Tube Formation Assay (TFA) Test, HUVEC in collagen gel; conditions: 20 hours, 40% or less judged remarkable; for inhibition at 1 µg/mL / inhibition at 10 µg/mL: Homo sapiens, HUVEC, read-out: TFA (inhibition rate, %)
Procedure, shortened: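 Inhibition rate (%) of tube formation is computed from tube lengths against control (+) and control (-), measured after 20 h at 37 °C in M-199 with 20% FCS, 30 ng/ml b-FGF and 0.1 μM PMA. Samples were applied to HUVEC on collagen and covered by a second collagen layer (double-layer gel).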

Row | Structure (SMILES) | IC50 [1] | activity at 1 µg/mL ([2]; 1 μg/ml) | activity at 10 µg/mL ([2]; 10 μg/ml) | inhibition at 1 µg/mL ([3]; 20 h, 1 μg/ml) | inhibition at 10 µg/mL ([3]; 20 h, 10 μg/ml) | CPA (IC50 μg/ml) [1] | CMA (% relative to control) ([2]; 1 μg/ml) | CMA (% relative to control) ([2]; 10 μg/ml) | TFA (inhibition rate, %) ([3]; 1 μg/ml) | TFA (inhibition rate, %) ([3]; 10 μg/ml) | inhibition at 1 µg/mL ([3]; 1 μg/ml) | inhibition at 10 µg/mL ([3]; 10 μg/ml)
1 | CNC(=O)O[C@@H]1OC=C(C(=O)OC)[C@H]2C[C@@H]3O[C@]3(CCl)C12 (stereo in doubt) [compound 51, (1S,4aS,6S,7R,7aR)-6,7-epoxy-7-(chloromethyl)-1-(methylcarbamoyloxy)-1,4a,5,6,7,7a-hexahydrocyclopenta [c]pyrane-4-carboxylic acid methylester] | > 100 µg/mL | 102% | 101% | 19.1% | -1.4% |  |  |  |  |  |  | 
2 | CNC(=O)O[C@@H]1OC=C(C(=O)O)[C@H]2C[C@@H]3O[C@]3(C)[C@H]12 [compound 1, (1S,4aS,6S,7R,7aR)-6,7-epoxy-1,4a,5,6,7,7a-hexahydro-7-methyl-1-(methylcarbamoyloxy) cyclopenta [c]-pyrane-4-carboxylic acid] | > 100 µg/mL | 98.5% | 93.5% | 49.8% | 37.8% |  |  |  |  |  |  | 
3 | CNC(=O)O[C@@H]1OC=C(C(=O)OCc2ccccc2)[C@H]2C[C@@H]3O[C@]3(C)[C@H]12 [compound 11, (1S,4aS,6S,7R,7aR)-6,7-epoxy-7-methyl-1-(methylcarbamoyloxy)-1,4a,5,6,7,7a-hexahydrocyclopenta [c]-pyrane-4-carboxylic acid benzyl ester] | > 100 µg/mL | 102% | 85.5% | 20.7% | 40.3% |  |  |  |  |  |  | 
4 | COC(=O)C1=COC(OC(=O)N(C)C)C2C1CC1OC12C (centres unmarked) [compound 31] | > 100 µg/mL | 97.2% | 107% | 15.2% | 26.5% |  |  |  |  |  |  | 
5 | C=CCCCOC(=O)C1=CO[C@@H](OC(=O)NC)[C@@H]2[C@@H]1C[C@@H]1O[C@]21C [compound 7, (1S,4aS,6S,7R,7aR)-6,7-epoxy-1,4a,5,6,7,7a-hexahydro-7-methyl-1-(methylcarbamoyloxy) cyclopenta [c]-pyrane-4-carboxylic acid 4-pentenylester] | 90.6 µg/mL (≈ 269 µM) | 82.6% | 79.7% | 25.8% | 18.2% |  |  |  |  |  |  | 
6 | CNC(=O)OC1OC=C(C(=O)N(C)C)C2CC3OC3(C)C12 (centres unmarked) [compound 18] | > 100 µg/mL | 90.3% | 71.5% | 28.6% | 27.7% |  |  |  |  |  |  | 
7 | CCNC(=O)O[C@@H]1OC=C(C(=O)OC)[C@H]2C[C@@H]3O[C@]3(C)[C@H]12 [compound 30, (1S,4aS,6S,7R,7aR)-6,7-epoxy-1-(ethylcarbamoyloxy)-1,4a,5,6,7,7a-hexahydro-7-methylcyclopenta [c] pyrane-4-carboxylic acid methylester] | > 100 µg/mL | 90% | 105% | 16.5% | 36% |  |  |  |  |  |  | 
8 | CNC(=O)O[C@@H]1OC=C(C(=O)Oc2ccccc2)[C@H]2C[C@@H]3O[C@]3(C)[C@H]12 [compound 13, (1S,4aS,6S,7R,7aR)-6,7-epoxy-1,4a,5,6,7,7a-hexahydro-7-methyl-1-(methylcarbamoyloxy) cyclopenta [c]-pyrane-4-carboxylic acid phenylester] | 53.3 µg/mL (≈ 154 µM) | 94.1% | 94% | 36.3% | 36.8% |  |  |  |  |  |  | 
9 | COC(=O)C1=COC(OC(=O)Nc2cccc3ccccc23)C2C1CC1OC12C [compound 37, (1S, 4aS,6S,7R,7aR)-6,7-epoxy-1,4a,5,6,7,7a-hexahydro-7-methyl-1-[(1-naphtyl)carbamoyloxy] cyclopenta [c] pyrane-4-carboxylic acid methylester] | > 100 µg/mL | 102% | 88.6% | 14.1% | 22.6% |  |  |  |  |  |  | 
10 | CCCCCC[C@]12O[C@H]1C[C@@H]1C(C(=O)OC)=CO[C@@H](OC(=O)NC)[C@@H]12 [compound 44, (1S,4aS,6S,7R,7aR)-6. 7-epoxy-7-n-hexyl-1,4a,5,6,7,7a-hexahydro-1-(methylcarbamoyloxy) cyclopenta [c] pyrane-4-carboxylic acid methy:lester] | > 100 µg/mL | 99.4% | 98.2% | 69.7% | 71.4% |  |  |  |  |  |  | 
11 | CCOC(=O)C1=CO[C@@H](OC(=O)NC)[C@@H]2[C@@H]1C[C@@H]1O[C@]21C [compound 4, (1S,4aS,6S,7R,7aR)-6,7-epoxy-1,4a,5,6,7,7a-hexahydro-7-methyl-1-(methylcarbamoyloxy) cyclopenta [c]-pyrane-4-carboxylic acid ethylester] | > 100 µg/mL | 70.8% | 53% | 40.5% | 5.6% |  |  |  |  |  |  | 
12 | CNC(=O)OC1OC=C(C(=O)N2CCCCC2)C2CC3OC3(C)C12 [compound 26, (1S,4aS,6S,7R,7aR)-6,7-epoxy-1,4a,5,6,7,7a-hexahydro-7-methyl-1-(methylcarbamoyloxy) cyclopenta [c]-pyrane-4-carboxylic acid piperidylamide] | > 100 µg/mL | 84% | 104% | 41.2% | 30.8% |  |  |  |  |  |  | 
13 | CNC(=O)O[C@@H]1OC=C(C(=O)OC)[C@H]2C[C@@H]3O[C@]3(C)[C@H]12 [compound 3, (1S,4aS,6S,7R,7aR)-6,7-epoxy-1,4a,5,6,7,7a-hexahydro-1-methylcarbamoyloxy-7-methylcyclopenta [c] pyrane-4-carboxylic acid methylester] | > 100 µg/mL | 68.5% | 57.3% | 33% | 33.5% |  |  |  |  |  |  | 
14 | CNC(=O)OC=C(C(=O)OC)[C@@H]1CC[C@]2(C)O[C@@]12CO [compound 54, 2-[(1S,2R,3S)-2,3-epoxy-2-(hydroxymethyl)-3-methyl-2-cyclopentyl]-3-[(methylcarbamoyl)oxy] methylacrylate] |  |  |  |  |  | > 100.0 µg/mL | 90.5% | 86.2% | -8.6% | -12.2% |  | 
15 | CNC(=O)OC1OC=C(C(=O)N2CC(C)OC(C)C2)C2CC3OC3(C)C12 [compound 24, (1S,4aS,6S,7R,7aR)-6,7-epoxy-1,4a,5,6,7,7a-hexahydro-7-methyl-1-(methylcarbamoyloxy) cyclopenta [c]-pyrane-4-carboxylic acid 2,6-dimethylmorpholylamide] | > 100 µg/mL | 96.9% | 112% | 41.3% | 24.2% |  |  |  |  |  |  | 
16 | CNC(=O)O[C@@H]1OC=C(C(=O)NC2CCCCC2)[C@H]2C[C@@H]3O[C@]3(C)[C@H]12 [compound 21, (1S,4aS,6S,7R,7aR)-6,7-epoxy-1,4a,5,6,7,7a-hexahydro-7-methyl-1-(methylcarbamoyloxy) cyclopenta [c]-pyrane-4-carboxylic acid cyclohexylamide] | > 100 µg/mL | 105% | 101% | 29.5% | 23.2% |  |  |  |  |  |  | 
17 | CNC(=O)O[C@@H]1OC=C(C(=O)OCCc2ccccc2)[C@H]2C[C@@H]3O[C@]3(C)[C@H]12 [compound 12, (1S,4aS,6S,7R,7aR)-6,7-epoxy-1,4a,5,6,7,7a-hexahydro-7-methyl-1-(methylcarbamoyloxy) cyclopenta [c]-pyrane-4-carboxylic acid phenylethylester] | > 100 µg/mL | 101% | 89.8% | 32.7% | 32.5% |  |  |  |  |  |  | 
18 | CN(Cc1cnc2nc(N)nc(N)c2n1)c1ccc(C(=O)N[C@@H](CCC(=O)O)C(=O)O)cc1 [MTX, Methotrexate, reference compound] | 0.04 µg/mL (≈ 0.088 µM) | 102% | 103% |  |  |  |  |  |  |  | 37.5% | 42.6%
19 | C=CCCOC(=O)C1=CO[C@@H](OC(=O)NC)[C@@H]2[C@@H]1C[C@@H]1O[C@]21C [compound 8, (1S,4aS,6S,7R,7aR)-6,7-epoxy-1,4a,5,6,7,7a-hexahydro-7-methyl-1-(methylcarbamoyloxy) cyclopenta [c]-pyrane-4-carboxylic acid 3-butenylester] | 60.5 µg/mL (≈ 187 µM) | 75.4% | 60.5% | 27.3% | 93.2% |  |  |  |  |  |  | 
